The target of experiment [1] is 5-hydroxytryptamine receptor 2A (Homo sapiens, UniProt P28223).
Experiment [2] concerns the target T1, 5-hydroxytryptamine receptor 1F (Homo sapiens, UniProt P30939).
T1 sequence (P30939 whole entry): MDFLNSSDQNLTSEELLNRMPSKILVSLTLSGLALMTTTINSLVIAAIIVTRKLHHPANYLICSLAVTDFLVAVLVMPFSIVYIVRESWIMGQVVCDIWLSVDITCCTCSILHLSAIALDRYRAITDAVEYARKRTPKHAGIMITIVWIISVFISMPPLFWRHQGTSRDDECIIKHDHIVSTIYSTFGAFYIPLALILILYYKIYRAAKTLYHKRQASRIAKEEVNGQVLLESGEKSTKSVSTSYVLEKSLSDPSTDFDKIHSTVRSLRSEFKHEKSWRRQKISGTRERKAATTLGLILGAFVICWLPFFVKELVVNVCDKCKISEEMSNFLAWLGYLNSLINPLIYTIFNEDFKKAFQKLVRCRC

Experiment [3] addresses T2, 5-hydroxytryptamine receptor 1A (Homo sapiens, UniProt P08908).
T2 sequence (P08908 whole entry): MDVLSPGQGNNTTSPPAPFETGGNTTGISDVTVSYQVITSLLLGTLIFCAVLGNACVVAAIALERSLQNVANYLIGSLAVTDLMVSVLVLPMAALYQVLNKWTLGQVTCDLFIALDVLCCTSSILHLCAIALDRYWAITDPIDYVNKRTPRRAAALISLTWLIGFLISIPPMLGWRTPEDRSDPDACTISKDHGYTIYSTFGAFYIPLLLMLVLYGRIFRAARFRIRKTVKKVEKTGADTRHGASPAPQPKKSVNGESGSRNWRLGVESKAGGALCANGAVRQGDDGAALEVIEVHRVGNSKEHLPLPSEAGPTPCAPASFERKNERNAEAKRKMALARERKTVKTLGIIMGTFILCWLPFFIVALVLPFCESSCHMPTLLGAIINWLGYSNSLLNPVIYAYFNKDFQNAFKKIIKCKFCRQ

Experiment [4] has as its target T3, 5-hydroxytryptamine receptor 2C (Homo sapiens, UniProt P28335).
T3 sequence (P28335 whole entry): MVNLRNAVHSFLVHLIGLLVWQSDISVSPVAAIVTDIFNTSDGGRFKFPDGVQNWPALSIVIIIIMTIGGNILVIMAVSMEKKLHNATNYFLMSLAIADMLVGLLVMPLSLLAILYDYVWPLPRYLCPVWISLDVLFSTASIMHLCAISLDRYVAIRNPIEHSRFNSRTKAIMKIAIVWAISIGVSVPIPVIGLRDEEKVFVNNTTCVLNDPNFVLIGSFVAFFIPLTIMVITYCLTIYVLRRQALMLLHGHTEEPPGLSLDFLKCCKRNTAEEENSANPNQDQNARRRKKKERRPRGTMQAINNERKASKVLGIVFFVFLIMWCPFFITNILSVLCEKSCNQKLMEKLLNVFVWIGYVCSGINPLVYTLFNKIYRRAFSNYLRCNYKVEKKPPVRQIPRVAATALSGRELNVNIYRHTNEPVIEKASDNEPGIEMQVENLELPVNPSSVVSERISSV

Experiment [5] addresses 5-hydroxytryptamine receptor 1E (Homo sapiens, UniProt P28566).
Experiment [6] has as its target 5-hydroxytryptamine receptor 2B (Homo sapiens, UniProt P41595).
Experiment [7] concerns the target 5-hydroxytryptamine receptor 1B (Homo sapiens, UniProt P28222).
In experiment [8] the target is 5-hydroxytryptamine receptor 7 (Homo sapiens, UniProt P34969).
5-hydroxytryptamine receptor 7, sequence (P34969 whole entry): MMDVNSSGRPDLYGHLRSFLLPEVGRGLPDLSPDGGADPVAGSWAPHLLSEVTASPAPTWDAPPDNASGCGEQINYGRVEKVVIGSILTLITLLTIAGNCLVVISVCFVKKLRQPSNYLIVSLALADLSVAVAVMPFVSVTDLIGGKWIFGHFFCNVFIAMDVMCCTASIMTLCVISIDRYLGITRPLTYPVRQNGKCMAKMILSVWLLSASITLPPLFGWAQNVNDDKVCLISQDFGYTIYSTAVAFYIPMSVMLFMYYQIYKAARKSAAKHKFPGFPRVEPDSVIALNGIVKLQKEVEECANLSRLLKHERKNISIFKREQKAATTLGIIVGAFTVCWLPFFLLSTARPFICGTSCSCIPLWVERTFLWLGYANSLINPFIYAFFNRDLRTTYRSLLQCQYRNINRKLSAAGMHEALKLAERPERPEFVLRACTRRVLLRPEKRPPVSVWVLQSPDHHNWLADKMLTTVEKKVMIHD
In experiment [9] the target is 5-hydroxytryptamine receptor 1D (Homo sapiens, UniProt P28221).
5-hydroxytryptamine receptor 1D, sequence (P28221 whole entry): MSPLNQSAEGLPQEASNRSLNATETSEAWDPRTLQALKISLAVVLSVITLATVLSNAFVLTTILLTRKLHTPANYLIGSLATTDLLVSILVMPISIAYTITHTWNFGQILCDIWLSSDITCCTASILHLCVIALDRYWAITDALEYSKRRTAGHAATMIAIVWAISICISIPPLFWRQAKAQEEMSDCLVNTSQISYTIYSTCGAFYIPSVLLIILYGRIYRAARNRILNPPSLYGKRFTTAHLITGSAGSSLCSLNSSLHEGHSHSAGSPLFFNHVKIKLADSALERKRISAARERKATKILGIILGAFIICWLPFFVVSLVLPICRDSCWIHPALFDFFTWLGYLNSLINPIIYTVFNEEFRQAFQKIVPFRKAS
Experiment [10] has as its target 5-hydroxytryptamine receptor 6 (Homo sapiens, UniProt P50406).

Values joined by “and” are separate entries in the source; they are usually repeats but may differ in a detail not shown here. Identical values can stand only once.

5-hydroxytryptamine receptor 6, sequence (P50406 whole entry): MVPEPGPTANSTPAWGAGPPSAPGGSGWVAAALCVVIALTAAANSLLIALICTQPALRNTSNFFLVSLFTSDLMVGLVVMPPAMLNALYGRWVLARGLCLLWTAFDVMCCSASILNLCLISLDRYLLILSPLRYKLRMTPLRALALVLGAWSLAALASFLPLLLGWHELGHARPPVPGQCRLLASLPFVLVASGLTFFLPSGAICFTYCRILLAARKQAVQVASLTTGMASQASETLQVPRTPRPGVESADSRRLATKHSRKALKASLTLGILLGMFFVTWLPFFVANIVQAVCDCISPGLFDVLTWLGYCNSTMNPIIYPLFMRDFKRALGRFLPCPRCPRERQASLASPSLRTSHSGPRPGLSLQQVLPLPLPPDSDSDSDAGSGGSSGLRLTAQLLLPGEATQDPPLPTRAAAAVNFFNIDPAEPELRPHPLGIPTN
5-hydroxytryptamine receptor 2A, sequence (P28223 whole entry): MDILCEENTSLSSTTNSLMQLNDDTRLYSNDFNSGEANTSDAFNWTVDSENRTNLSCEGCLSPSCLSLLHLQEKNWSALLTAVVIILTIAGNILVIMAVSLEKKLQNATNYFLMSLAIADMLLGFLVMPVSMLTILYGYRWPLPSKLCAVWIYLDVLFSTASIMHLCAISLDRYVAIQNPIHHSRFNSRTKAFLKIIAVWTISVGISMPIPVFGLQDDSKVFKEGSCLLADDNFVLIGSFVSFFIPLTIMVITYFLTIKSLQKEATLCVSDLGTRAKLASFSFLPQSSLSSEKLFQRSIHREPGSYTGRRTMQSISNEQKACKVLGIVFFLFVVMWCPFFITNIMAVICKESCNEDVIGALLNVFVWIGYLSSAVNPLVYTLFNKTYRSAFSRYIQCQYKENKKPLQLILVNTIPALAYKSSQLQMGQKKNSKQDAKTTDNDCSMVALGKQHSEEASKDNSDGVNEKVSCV
5-hydroxytryptamine receptor 1B, sequence (P28222 whole entry): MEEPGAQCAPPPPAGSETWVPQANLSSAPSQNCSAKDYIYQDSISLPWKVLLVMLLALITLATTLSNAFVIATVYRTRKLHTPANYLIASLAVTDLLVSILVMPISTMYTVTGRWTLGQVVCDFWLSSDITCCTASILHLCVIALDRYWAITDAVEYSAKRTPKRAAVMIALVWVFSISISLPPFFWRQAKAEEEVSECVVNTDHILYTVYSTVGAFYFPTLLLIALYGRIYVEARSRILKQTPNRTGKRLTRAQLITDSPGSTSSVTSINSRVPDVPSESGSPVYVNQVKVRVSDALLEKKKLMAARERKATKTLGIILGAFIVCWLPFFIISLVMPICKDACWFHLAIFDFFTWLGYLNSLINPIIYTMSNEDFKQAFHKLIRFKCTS
5-hydroxytryptamine receptor 2B, sequence (P41595 whole entry): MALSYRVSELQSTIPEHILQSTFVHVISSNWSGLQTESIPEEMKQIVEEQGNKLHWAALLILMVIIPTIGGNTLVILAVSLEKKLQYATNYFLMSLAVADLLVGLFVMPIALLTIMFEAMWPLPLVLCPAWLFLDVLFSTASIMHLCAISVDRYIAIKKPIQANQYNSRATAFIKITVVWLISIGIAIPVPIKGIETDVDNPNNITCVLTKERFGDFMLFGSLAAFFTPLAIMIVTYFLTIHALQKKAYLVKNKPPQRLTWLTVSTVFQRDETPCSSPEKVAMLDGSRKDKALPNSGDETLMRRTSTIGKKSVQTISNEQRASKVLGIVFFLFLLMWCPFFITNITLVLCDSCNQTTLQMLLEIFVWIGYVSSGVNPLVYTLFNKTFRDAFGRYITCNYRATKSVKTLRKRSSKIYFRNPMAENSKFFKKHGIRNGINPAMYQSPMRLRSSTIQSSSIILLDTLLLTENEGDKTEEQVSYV
5-hydroxytryptamine receptor 1E, sequence (P28566 whole entry): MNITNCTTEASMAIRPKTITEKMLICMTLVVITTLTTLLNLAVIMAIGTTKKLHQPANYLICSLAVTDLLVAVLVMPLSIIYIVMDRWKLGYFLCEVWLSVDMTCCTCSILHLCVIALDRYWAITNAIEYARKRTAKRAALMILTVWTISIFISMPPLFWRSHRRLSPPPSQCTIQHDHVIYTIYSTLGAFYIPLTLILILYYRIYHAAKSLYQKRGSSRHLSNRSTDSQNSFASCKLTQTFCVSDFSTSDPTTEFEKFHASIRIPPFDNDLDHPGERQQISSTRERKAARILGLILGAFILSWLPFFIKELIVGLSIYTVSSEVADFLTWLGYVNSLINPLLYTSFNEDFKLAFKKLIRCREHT

The term Ki denotes the dissociation constant of the complex between target and ligand, obtained from inhibition or displacement. Low values mean tighter binding, high ones weaker binding. As to `COc1ccc(NC(=O)c2ccc(-c3ccc(-c4noc(C)n4)cc3C)cc2)cc1OCCN(C)C` [CAS_3292447], the Ki in experiment [1] was 50.1 nM; in experiment [2] it was 1000 nM; in experiment [3], 501 nM; in experiment [4] it was 158 nM; in experiment [5] it was 1000 nM; in experiment [6], 1580 nM. The Ki in [7] is 1 nM and 7.94 nM; in experiment [8] it was greater than 10000 nM; in [9], 25.1 nM and 12.6 nM; in experiment [10], 3160 nM.
In the case of `OC(CN1CCN(c2cccc(Cl)c2)CC1)C(c1ccccc1)c1ccccc1` (stereo not drawn), the Ki in experiment [1] was 251 nM; in experiment [2], 1000 nM; in experiment [4], 631 nM; in experiment [5], 6310 nM; in [6] it was 39.8 nM; in experiment [7], 794 nM and 1260 nM. The Ki in [8] was 501 nM; in experiment [9], 12.6 nM and 7.94 nM; in experiment [10], 1260 nM.
Regarding `COc1ccc(NC(=O)c2ccc(-c3ccc(-c4noc(C)n4)cc3C)cc2)cc1N1CCN(C)CC1` [SMR001230745], the Ki in experiment [1] is 15.8 nM; in [2], 398 nM; in experiment [3] it was 63.1 nM; in experiment [4], 100 nM; in experiment [5], 3980 nM; in experiment [6] it was 631 nM. The Ki was 1 nM and 7.94 nM in experiment [7]; 631 nM in experiment [8]; 1580 nM in experiment [10].

For the origin of these results see BindingDB's records for doi:10.1007/pl00005056 (Smithkline Beecham Pharmaceuticals, 1997).
